This is an account of results in paper PMC6023893, “Glutamic acid–valine–citrulline linkers ensure stability and efficacy of antibody–drug conjugates in mice” (Nature Communications, 2018).

One may read the half-life as the time needed for the level to fall by half in the phase considered. Higher therefore signals slow decline.

For series [1] the following is noted: ref US8512707B2; cited from earlier work.
The next series in a line: in vitro. Format: in vitro ADME. As to conditions: BALB/c, mouse, plasma. Here is the method:
Each test compound (10 mM in DMSO, 2 µL) was mixed with 1 µL of 1-pyrenemethylamine (10 mM in DMSO, internal standard) and incubated at 37 °C for 10 min. Pre-warmed human plasma pooled from healthy donors or BALB/c mouse plasma (197 µL, Innovative Research) was added to the mixture, followed by incubation at 37 °C. Aliquots (10 µL) were collected at each time point (0, 1, 6, 24, 48, and 96 h) and 40 µL of cold acetonitrile containing 1% formic acid was added to precipitate proteins. Supernatant of each sample was obtained and analyzed for quantification by analytical HPLC as described above. All assays were performed in triplicate.

Another series deals with T1, human liver cathepsin B (Homo sapiens, UniProt P07858).
T1 construct: Pre-warmed human liver cathepsin B (20 ng µL^–1, EMD Millipore); purchased EMD Millipore; host or cells: human liver (tissue-derived, as named)
In words: Cathepsin B-mediated cleavage assay using pyrene probes. It is filed as biochemical. As to conditions: 37 °C, pH 5.0. How it is done: Each test compound (10 mM in DMSO, 2 µL) was mixed with 97 µL of MES buffer (25 mM MES-Na, 1 mM DTT, pH 5.0) and 1 µL of 1-pyrenemethylamine (10 mM in DMSO, internal standard). The mixture was incubated at 37 °C for 10 min. Pre-warmed human liver cathepsin B (20 ng µL^–1, EMD Millipore) in 100 µL MES buffer was added to the mixture, followed by incubation at 37 °C. Aliquots (10 µL) were collected at each time point (0, 0.5, 1, 3, 24, and 48 h). Cold acetonitrile containing 1% formic acid (40 µL) was added to precipitate proteins. Precipitated proteins were separated by centrifugation (15,000 × g, 4 °C, 30 min) and supernatant of each sample was analyzed for quantification by analytical HPLC (UV absorption at 342 nm). The amount of each probe was normalized to the peak area of the internal standard. All assays were performed at least three times in technical duplicate, and data shown are representative of the replicates.

Numbered stars: 1 amine (or outer) side, 2 acyl side, 3 side chain; on linkers, the order of the positions; unused ones are H or OH. Square brackets hold non-standard residues; d marks the D form. Peptide text beside a SMILES is read from it. * marks the point of attachment. Dolaproine = CO[C@@H]([C@@H]1CCCN1)[C@@H](C)C(=O)O; NHCH2(1-pyrenyl) = c1cc2ccc3ccc(CN*)c4ccc(c1)c2c34; Dil = CC[C@H](C)[C@H](NC)[C@@H](CC(=O)O)OC; PABC = O=C(OCc1ccc(N[*:1])cc1)[*:2]; X1 = C[C@@H](N*)[C@@H](O)c1ccccc1; Cit = NC(=O)NCCC[CH](N)C(=O)O; NMeV = CN[C@H](C(=O)O)C(C)C; Glycolyl = O=C(CO)*; Sar = CNCC(=O)O

With `CC[C@H](C)[C@@H]([C@@H](CC(=O)N1CCC[C@H]1[C@H](OC)[C@@H](C)C(=O)N[C@H](C)[C@@H](O)c1ccccc1)OC)N(C)C(=O)[C@@H](NC(=O)[C@@H](NC)C(C)C)C(C)C` [MMAE, monomethyl auristatin E] (H-[NMeV]V[Dil][Dolaproine]-X1), the “maximum tolerated dose (MTD)” value in series [1] is given as 1 mg/kg.

`CC(=O)NC(CC(=O)O)C(=O)NC(C(=O)NC(CCCNC(N)=O)C(=O)Nc1ccc(COC(=O)N(C)CC(=O)NCc2ccc3ccc4cccc5ccc2c3c45)cc1)C(C)C` (centres unmarked) [probe 1d] (Ac-DV[Cit][PABC][Sar]-{NHCH2(1-pyrenyl)}; configuration not given here) showed a half-life at 100 µM in “in vitro” of 14 h.

Regarding `CC(=O)NC(C(=O)NC(CCCNC(N)=O)C(=O)Nc1ccc(COC(=O)N(C)CC(=O)NCc2ccc3ccc4cccc5ccc2c3c45)cc1)C(C)C` (centres unmarked) [probe 1a], the half-life at 100 µM in the series “in vitro” was 2.3 h.

In turn, `CC(=O)NC(CCCCN)C(=O)NC(C(=O)NC(CCCNC(N)=O)C(=O)Nc1ccc(COC(=O)N(C)CC(=O)NCc2ccc3ccc4cccc5ccc2c3c45)cc1)C(C)C` (centres unmarked) [probe 1e] (Ac-KV[Cit][PABC][Sar]-{NHCH2(1-pyrenyl)}; configuration not given here) gave a half-life at 100 µM in “in vitro” of 0.9 h.

Consider `CC(=O)NC(CO)C(=O)NC(C(=O)NC(CCCNC(N)=O)C(=O)Nc1ccc(COC(=O)N(C)CC(=O)NCc2ccc3ccc4cccc5ccc2c3c45)cc1)C(C)C` (centres unmarked) [probe 1b] (Ac-SV[Cit][PABC][Sar]-{NHCH2(1-pyrenyl)}; configuration not given here), for which the half-life at 100 µM in the series “in vitro” was 3.1 h. At human liver cathepsin B, the “Cathepsin B-mediated cleavage rate of probes” value is listed as “cleavage rate comparable with that of VCit probe 1a”.

In the case of `CC(=O)NC(CCC(=O)O)C(=O)NC(C(=O)NC(CCCNC(N)=O)C(=O)Nc1ccc(COC(=O)N(C)CC(=O)NCc2ccc3ccc4cccc5ccc2c3c45)cc1)C(C)C` (centres unmarked) [probe 1c] (Ac-EV[Cit][PABC][Sar]-{NHCH2(1-pyrenyl)}; configuration not given here), the half-life at 100 µM in the series “in vitro” was 19.1 h.

In the series “in vitro”, `CC(C)C(NC(=O)CNC(=O)CO)C(=O)NC(CCCNC(N)=O)C(=O)Nc1ccc(COC(=O)N(C)CC(=O)NCc2ccc3ccc4cccc5ccc2c3c45)cc1` (centres unmarked) [probe 1f] (Glycolyl-GV[Cit][PABC][Sar]-{NHCH2(1-pyrenyl)}; configuration not given here) gave a half-life at 100 µM of 5 h.
